PubChem BioAssay (NCI)
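1) Cells in 96-well plates. 2) Compound, 48 h, 5 concentrations. 3) Linear interpolation between surrounding doses. 4) Unreached endpoint = highest concentration. TGI denotes the concentration required for complete inhibition of growth.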

Legend:
Test in all cases: inhibition of tumour cell growth, NCI panel, 48 h
[1] = test system: ACHN renal
[2] = test system: HCC-2998 colon
[3] = test system: K-562 leukemia
[4] = test system: KM12 colon
[5] = test system: MALME-3M melanoma
[6] = test system: MDA-N
[7] = test system: NCI-H23 lung
[8] = test system: NCI-H522 lung
[9] = test system: SF-539 CNS
[10] = test system: SNB-75 CNS

SMILES | TGI [1] | TGI [2] | TGI [3] | TGI [4] | TGI [5] | TGI [6] | TGI [7] | TGI [8] | TGI [9] | TGI [10]
C[C@@H](CC(=O)OCc1ccccc1)OC1OC(COC(=O)C(C)(C)C)C(OC(=O)C(C)(C)C)C(OC(=O)C(C)(C)C)C1OC(=O)C(C)(C)C (stereo partly specified) | > 100 µM | > 100 µM | > 100 µM | > 100 µM | > 100 µM | > 100 µM | > 100 µM | > 100 µM | > 100 µM | > 100 µM
N#Cc1sc2nc3ccccc3n2c1N | > 100 µM | > 100 µM |  | 23.6 µM | > 100 µM | > 100 µM | > 100 µM | > 100 µM | > 100 µM | > 100 µM
CC1(C)O[C@@H]2[C@@H](COC(C)(C)O[C@H]2C2SCCCS2)O1 | > 100 µM | > 100 µM | > 100 µM | > 100 µM | > 100 µM | > 100 µM | > 100 µM | > 100 µM | > 100 µM | 
CN=c1sc2c(n1C)C(=O)c1ccccc1C2=O | 19.2 µM | 20.4 µM | 12.2 µM | 13.5 µM | 1.14 µM | 0.467 µM | 2.38 µM | 29.4 µM | 4.2 µM | 4.33 µM
COc1ccc(/C(Nc2ccccc2)=C(\CCl)c2ccccc2)cc1OC | > 100 µM | > 100 µM | 64.9 µM | > 100 µM | > 100 µM | > 100 µM | > 100 µM | > 100 µM | > 100 µM | > 100 µM
CC(=O)c1ccc(N=NN2CCCC2)cc1 | > 100 µM | > 100 µM | > 100 µM | > 100 µM |  | > 100 µM | > 100 µM | > 100 µM | > 100 µM | > 100 µM
COC(=O)C1CCC(=O)N1CN(C(C)=O)c1cccc(O)c1 (stereo unspecified) | > 100 µM |  | > 100 µM | > 100 µM | > 100 µM | > 100 µM | > 100 µM | > 100 µM | > 100 µM | > 100 µM
CCOC(=O)c1c(NC(=O)c2ccccc2)c(C#N)c2n1CCCCC2 | > 100 µM | > 100 µM | > 100 µM | > 100 µM | > 100 µM | > 100 µM | > 100 µM | > 100 µM |  | > 100 µM
COC(=O)[C@@H]1CO[C@H](C(C)(C)C)N1C(=O)N1C=CC(=O)C[C@H]1C | > 100 µM |  | > 100 µM | > 100 µM | > 100 µM | > 100 µM | > 100 µM | > 100 µM |  | > 100 µM
Cc1c(C)c(S(=O)(=O)N(CCCCN)OCCCN)c(C)c2c1OC(C)(C)CC2 | 47.2 µM | 20.8 µM | > 100 µM | 42.8 µM |  | > 100 µM | 38.1 µM | 34.1 µM | 64.2 µM | 32.7 µM
NC1=NC2(COC(c3ccccc3)(c3ccccc3)c3ccccc3)OC(COC(c3ccccc3)(c3ccccc3)c3ccccc3)C(O)C2O1 (stereo unspecified) | > 100 µM |  | > 100 µM | > 100 µM | > 100 µM | > 100 µM | > 100 µM | > 100 µM | > 100 µM | 4.47 µM
